From ChEMBL document CHEMBL4507294, “Data for DCP probe MSD-CYP11B2” (2021)

Legend:
[1] = target: Serine/threonine-protein kinase Nek6 (Homo sapiens) (UniProt Q9HC98); details: Compound concentration 1000.0 nM
[2] = target: Myosin-IIIb (Homo sapiens) (UniProt Q8WXR4); details: Compound concentration 1000.0 nM
[3] = target: NT-3 growth factor receptor (Homo sapiens) (UniProt Q16288); details: Compound concentration 1000.0 nM
[4] = system: Tyrosine-protein kinase ABL1 (Homo sapiens), P00519 [H396P]; details: Compound concentration 1000.0 nM
[5] = target: Death-associated protein kinase 2 (Homo sapiens) (UniProt Q9UIK4); details: Compound concentration 1000.0 nM
[6] = target: Hormonally up-regulated neu tumor-associated kinase (Homo sapiens) (UniProt P57058); details: Compound concentration 1000.0 nM
[7] = target: Mitogen-activated protein kinase kinase kinase 11 (Homo sapiens) (UniProt Q16584); details: Compound concentration 1000.0 nM
[8] = target: Casein kinase I isoform gamma-3 (Homo sapiens) (UniProt Q9Y6M4); details: Compound concentration 1000.0 nM
[9] = target: Serine/threonine-protein kinase TAO1 (Homo sapiens) (UniProt Q7L7X3); details: Compound concentration 1000.0 nM
[10] = system: Phosphatidylinositol 4,5-bisphosphate 3-kinase catalytic subunit alpha isoform (Homo sapiens), P42336 [I800L]; details: Compound concentration 1000.0 nM
[11] = target: Casein kinase I isoform alpha-like (Homo sapiens) (UniProt Q8N752); details: Compound concentration 1000.0 nM
[12] = target: Serine/threonine-protein kinase B-raf (Homo sapiens) (UniProt P15056); details: Compound concentration 1000.0 nM
[13] = target: Cyclin-dependent kinase 7 (Homo sapiens) (UniProt P50613); details: Compound concentration 1000.0 nM
[14] = target: Death-associated protein kinase 1 (Homo sapiens) (UniProt P53355); details: Compound concentration 1000.0 nM
[15] = target: 5-hydroxytryptamine receptor 2B (Homo sapiens, UniProt P41595); experiment: GPCRScan assay: inhibition of 5-HT2B; design: radioligand conc. used [nm] 1.0 – 2.0, parental cells stable HEK
[16] = target: Interferon-induced, double-stranded RNA-activated protein kinase (Homo sapiens) (UniProt P19525); details: Compound concentration 1000.0 nM
[17] = target: Serine/threonine-protein kinase 10 (Homo sapiens) (UniProt O94804); details: Compound concentration 1000.0 nM
[18] = target: Histamine H1 receptor (Homo sapiens) (UniProt P35367); details: Compound concentration 10.0 uM
[19] = target: Dual specificity testis-specific protein kinase 1 (Homo sapiens) (UniProt Q15569); details: Compound concentration 1000.0 nM
[20] = target: Phosphatidylinositol 4,5-bisphosphate 3-kinase catalytic subunit beta isoform (Homo sapiens) (UniProt P42338); details: Compound concentration 1000.0 nM
[21] = target: Serine/threonine-protein kinase mTOR (Homo sapiens) (UniProt P42345); details: Compound concentration 1000.0 nM
[22] = target: Misshapen-like kinase 1 (Homo sapiens) (UniProt Q8N4C8); details: Compound concentration 1000.0 nM
[23] = target: Ribosomal protein S6 kinase alpha-3 (Homo sapiens) (UniProt P51812); details: Compound concentration 1000.0 nM
[24] = target: Tyrosine-protein kinase JAK2 (Homo sapiens) (UniProt O60674); details: Compound concentration 1000.0 nM
[25] = system: Epidermal growth factor receptor (Homo sapiens), P00533 [UNDEFINED MUTATION]; details: Compound concentration 1000.0 nM
[26] = target: Cyclin-dependent kinase 11B (Homo sapiens) (UniProt P21127); details: Compound concentration 1000.0 nM
[27] = target: Serine/threonine-protein kinase MARK1 (Homo sapiens) (UniProt Q9P0L2); details: Compound concentration 1000.0 nM
[28] = target: Ribosomal protein S6 kinase alpha-6 (Homo sapiens) (UniProt Q9UK32); details: Compound concentration 1000.0 nM
[29] = target: Serine/threonine-protein kinase PAK 6 (Homo sapiens) (UniProt Q9NQU5); details: Compound concentration 1000.0 nM
[30] = target: Muscarinic acetylcholine receptor M5 (Homo sapiens) (UniProt P08912); details: Compound concentration 10.0 uM
[31] = target: Tyrosine-protein kinase ABL1 (Homo sapiens) (UniProt P00519); details: Compound concentration 1000.0 nM
[32] = target: Mitogen-activated protein kinase 4 (Homo sapiens) (UniProt P31152); details: Compound concentration 1000.0 nM
[33] = target: Ephrin type-A receptor 4 (Homo sapiens) (UniProt P54764); details: Compound concentration 1000.0 nM
[34] = target: Mitogen-activated protein kinase kinase kinase kinase 2 (Homo sapiens) (UniProt Q12851); details: Compound concentration 1000.0 nM
[35] = system: Mast/stem cell growth factor receptor Kit (Homo sapiens), P10721 [D816V]; details: Compound concentration 1000.0 nM
[36] = target: Serine/threonine-protein kinase SIK1 (Homo sapiens) (UniProt P57059); details: Compound concentration 1000.0 nM
[37] = target: Serine/threonine-protein kinase PLK2 (Homo sapiens) (UniProt Q9NYY3); details: Compound concentration 1000.0 nM
[38] = system: Tyrosine-protein kinase ABL1 (Homo sapiens), P00519 [T315I]; details: Compound concentration 1000.0 nM
[39] = target: Casein kinase I isoform gamma-1 (Homo sapiens) (UniProt Q9HCP0); details: Compound concentration 1000.0 nM
[40] = target: Tyrosine-protein kinase ITK/TSK (Homo sapiens) (UniProt Q08881); details: Compound concentration 1000.0 nM
[41] = target: Serine/threonine-protein kinase RIO1 (Homo sapiens) (UniProt Q9BRS2); details: Compound concentration 1000.0 nM
[42] = target: LIM domain kinase 2 (Homo sapiens) (UniProt P53671); details: Compound concentration 1000.0 nM
[43] = target: Phosphatidylinositol 4,5-bisphosphate 3-kinase catalytic subunit gamma isoform (Homo sapiens) (UniProt P48736); details: Compound concentration 1000.0 nM
[44] = target: Cyclin-dependent kinase-like 5 (Homo sapiens) (UniProt O76039); details: Compound concentration 1000.0 nM
[45] = target: Fibroblast growth factor receptor 3 (Homo sapiens) (UniProt P22607); details: Compound concentration 1000.0 nM

Sequence of Mitogen-activated protein kinase kinase kinase 11 (Homo sapiens) (Q16584 whole entry, looked up, canonical isoform): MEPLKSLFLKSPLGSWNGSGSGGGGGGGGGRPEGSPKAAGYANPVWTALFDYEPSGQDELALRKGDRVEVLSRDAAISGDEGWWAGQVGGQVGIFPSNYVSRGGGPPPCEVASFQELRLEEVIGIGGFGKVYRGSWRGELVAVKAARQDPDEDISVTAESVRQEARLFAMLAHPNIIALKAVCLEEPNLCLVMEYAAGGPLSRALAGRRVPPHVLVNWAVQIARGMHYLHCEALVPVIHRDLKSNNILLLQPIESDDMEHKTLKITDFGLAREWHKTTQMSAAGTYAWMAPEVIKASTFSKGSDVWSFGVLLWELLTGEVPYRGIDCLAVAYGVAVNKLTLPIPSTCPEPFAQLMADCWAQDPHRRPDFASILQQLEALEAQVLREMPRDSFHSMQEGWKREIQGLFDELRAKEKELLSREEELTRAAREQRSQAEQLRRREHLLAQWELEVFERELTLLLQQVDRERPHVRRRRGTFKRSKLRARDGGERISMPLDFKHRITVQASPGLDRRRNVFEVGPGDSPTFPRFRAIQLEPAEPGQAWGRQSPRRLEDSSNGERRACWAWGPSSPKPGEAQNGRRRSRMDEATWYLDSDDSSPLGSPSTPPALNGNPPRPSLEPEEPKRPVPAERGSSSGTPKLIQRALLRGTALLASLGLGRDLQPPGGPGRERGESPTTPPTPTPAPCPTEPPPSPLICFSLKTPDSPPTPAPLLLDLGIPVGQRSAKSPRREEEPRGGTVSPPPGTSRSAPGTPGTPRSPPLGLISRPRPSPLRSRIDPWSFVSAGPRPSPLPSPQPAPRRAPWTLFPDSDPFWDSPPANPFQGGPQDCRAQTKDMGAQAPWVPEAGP
Sequence of Mitogen-activated protein kinase 4 (Homo sapiens) (P31152 whole entry): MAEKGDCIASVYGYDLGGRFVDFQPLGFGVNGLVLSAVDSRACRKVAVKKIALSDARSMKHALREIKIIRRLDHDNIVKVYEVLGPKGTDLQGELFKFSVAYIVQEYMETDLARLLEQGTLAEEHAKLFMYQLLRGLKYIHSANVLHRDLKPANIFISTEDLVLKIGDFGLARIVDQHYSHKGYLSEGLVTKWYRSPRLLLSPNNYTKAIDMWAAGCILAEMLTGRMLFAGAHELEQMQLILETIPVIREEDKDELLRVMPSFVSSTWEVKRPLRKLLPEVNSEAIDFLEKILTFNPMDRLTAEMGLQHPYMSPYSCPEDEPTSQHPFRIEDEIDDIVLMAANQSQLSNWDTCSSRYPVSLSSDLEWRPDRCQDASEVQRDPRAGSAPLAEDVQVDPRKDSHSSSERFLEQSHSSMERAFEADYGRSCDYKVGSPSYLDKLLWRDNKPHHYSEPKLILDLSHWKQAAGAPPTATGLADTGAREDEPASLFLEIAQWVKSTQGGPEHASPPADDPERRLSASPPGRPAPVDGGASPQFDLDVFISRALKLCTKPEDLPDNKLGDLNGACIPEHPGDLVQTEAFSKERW
Sequence of Tyrosine-protein kinase JAK2 (Homo sapiens) (O60674 whole entry): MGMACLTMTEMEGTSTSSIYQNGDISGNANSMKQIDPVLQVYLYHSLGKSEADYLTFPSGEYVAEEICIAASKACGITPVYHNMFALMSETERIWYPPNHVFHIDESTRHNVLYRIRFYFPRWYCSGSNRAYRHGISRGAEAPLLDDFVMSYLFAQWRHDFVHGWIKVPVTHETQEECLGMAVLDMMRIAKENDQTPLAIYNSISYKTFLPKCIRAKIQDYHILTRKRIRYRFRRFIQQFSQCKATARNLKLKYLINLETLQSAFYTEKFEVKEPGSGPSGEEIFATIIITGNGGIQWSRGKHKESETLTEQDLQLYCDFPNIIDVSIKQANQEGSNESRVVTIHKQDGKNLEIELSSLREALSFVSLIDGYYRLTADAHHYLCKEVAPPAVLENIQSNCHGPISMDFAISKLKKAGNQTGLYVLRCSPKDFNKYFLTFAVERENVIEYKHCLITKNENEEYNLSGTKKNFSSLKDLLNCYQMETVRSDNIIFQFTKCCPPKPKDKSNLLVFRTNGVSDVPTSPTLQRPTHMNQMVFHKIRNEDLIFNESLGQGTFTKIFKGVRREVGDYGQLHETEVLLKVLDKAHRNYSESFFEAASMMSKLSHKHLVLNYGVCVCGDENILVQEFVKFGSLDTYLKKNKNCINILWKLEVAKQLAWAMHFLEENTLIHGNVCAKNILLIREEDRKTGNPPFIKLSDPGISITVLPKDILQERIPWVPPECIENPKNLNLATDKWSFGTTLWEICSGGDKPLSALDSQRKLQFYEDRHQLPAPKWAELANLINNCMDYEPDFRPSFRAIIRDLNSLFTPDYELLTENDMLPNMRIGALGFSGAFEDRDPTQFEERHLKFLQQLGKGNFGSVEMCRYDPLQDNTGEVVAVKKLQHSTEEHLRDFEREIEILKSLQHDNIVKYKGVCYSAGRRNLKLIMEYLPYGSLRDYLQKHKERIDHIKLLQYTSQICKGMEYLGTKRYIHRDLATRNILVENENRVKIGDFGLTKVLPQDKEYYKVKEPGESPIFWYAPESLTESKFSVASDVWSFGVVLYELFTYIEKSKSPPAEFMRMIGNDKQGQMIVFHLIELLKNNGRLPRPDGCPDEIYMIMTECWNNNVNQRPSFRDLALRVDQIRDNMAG
Sequence of Hormonally up-regulated neu tumor-associated kinase (Homo sapiens) (P57058 whole entry): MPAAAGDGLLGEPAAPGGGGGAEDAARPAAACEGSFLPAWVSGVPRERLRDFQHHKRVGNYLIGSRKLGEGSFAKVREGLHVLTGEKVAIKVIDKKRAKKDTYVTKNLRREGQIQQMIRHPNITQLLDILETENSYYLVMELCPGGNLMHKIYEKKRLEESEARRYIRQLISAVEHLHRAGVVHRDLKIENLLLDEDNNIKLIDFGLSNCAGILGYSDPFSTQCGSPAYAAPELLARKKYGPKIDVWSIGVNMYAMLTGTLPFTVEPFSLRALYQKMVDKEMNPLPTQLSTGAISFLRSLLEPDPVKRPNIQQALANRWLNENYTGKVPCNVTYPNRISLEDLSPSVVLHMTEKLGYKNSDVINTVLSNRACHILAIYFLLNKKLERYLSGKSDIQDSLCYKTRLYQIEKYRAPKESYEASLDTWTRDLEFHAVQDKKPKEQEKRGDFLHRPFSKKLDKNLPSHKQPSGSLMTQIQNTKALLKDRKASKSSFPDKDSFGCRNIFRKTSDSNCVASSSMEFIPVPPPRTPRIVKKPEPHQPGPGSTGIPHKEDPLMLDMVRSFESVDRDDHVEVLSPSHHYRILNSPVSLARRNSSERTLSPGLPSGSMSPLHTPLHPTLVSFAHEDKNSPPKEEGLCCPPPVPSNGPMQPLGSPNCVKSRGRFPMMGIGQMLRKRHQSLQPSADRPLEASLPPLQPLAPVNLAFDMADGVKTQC
Sequence of Serine/threonine-protein kinase MARK1 (Homo sapiens) (Q9P0L2 whole entry, looked up): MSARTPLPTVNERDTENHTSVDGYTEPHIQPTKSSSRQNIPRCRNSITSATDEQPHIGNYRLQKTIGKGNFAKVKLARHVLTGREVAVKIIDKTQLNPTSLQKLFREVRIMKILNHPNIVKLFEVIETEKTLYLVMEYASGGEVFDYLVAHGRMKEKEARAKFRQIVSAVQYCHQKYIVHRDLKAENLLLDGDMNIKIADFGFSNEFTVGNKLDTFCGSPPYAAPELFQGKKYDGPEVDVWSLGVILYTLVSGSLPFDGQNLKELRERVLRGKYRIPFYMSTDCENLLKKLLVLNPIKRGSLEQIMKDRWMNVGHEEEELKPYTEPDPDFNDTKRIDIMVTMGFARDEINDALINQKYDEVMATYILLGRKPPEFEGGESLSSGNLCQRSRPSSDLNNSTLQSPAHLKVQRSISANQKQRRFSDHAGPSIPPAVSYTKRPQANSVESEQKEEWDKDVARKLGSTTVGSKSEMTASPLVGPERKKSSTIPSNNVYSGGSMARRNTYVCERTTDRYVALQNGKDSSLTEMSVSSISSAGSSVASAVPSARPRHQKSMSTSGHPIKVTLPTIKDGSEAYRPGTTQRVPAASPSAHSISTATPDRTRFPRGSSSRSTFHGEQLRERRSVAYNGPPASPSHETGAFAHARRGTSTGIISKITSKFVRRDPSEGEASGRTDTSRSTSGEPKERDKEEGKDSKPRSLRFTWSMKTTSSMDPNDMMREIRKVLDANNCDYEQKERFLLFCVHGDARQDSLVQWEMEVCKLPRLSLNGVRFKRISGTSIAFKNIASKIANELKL
Sequence of Mast/stem cell growth factor receptor Kit (Homo sapiens), P10721 [D816V] (P10721 whole entry D816V): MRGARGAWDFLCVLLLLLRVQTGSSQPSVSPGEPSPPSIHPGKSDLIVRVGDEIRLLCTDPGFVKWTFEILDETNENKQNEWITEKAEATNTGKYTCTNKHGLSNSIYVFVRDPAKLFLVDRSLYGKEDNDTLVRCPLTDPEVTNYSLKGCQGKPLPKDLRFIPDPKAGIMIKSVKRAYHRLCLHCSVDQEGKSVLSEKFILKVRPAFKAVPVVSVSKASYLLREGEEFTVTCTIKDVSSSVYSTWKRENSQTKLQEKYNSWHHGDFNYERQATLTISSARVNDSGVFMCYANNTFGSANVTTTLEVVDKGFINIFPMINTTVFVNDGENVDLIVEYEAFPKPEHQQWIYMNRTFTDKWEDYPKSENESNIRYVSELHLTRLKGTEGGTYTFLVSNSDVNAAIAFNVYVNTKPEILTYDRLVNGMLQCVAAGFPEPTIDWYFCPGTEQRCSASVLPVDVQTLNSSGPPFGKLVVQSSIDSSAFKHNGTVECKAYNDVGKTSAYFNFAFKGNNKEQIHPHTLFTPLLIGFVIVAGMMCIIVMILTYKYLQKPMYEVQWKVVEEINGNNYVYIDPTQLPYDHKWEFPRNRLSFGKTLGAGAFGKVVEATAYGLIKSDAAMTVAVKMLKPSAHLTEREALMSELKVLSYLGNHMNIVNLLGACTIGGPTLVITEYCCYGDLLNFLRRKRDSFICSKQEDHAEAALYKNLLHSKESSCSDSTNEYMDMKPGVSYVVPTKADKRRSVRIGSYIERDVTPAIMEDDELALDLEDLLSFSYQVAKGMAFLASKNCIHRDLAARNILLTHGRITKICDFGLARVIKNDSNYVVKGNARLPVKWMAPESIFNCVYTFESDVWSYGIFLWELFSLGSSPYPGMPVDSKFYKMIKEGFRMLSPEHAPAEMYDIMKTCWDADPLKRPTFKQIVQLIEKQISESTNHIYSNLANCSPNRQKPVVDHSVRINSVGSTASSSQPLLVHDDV

## FC(F)(F)c1ccc2c(c1)nc(-c1cccnc1)n2C1CC1 [MSD-CYP11B2-Negative-control]
[1]
  residual activity: 100%
[2]
  residual activity: 67%
[3]
  residual activity: 100%
[4]
  residual activity: 100%
[5]
  residual activity: 100%
[6]
  residual activity: 100%
[7]
  residual activity: 100%
[8]
  residual activity: 100%
[9]
  residual activity: 100%
[10]
  residual activity: 99%
[11]
  residual activity: 100%
[12]
  residual activity: 100%
[13]
  residual activity: 100%
[14]
  residual activity: 100%
[15]
  Ki: 1.07 µM
[16]
  residual activity: 89%
[17]
  residual activity: 100%
[18]
  inhibition: 9.49%
[19]
  residual activity: 100%
[20]
  residual activity: 97%
[21]
  residual activity: 80%
[22]
  residual activity: 100%
[23]
  residual activity: 89%
[24]
  residual activity: 100%
[25]
  residual activity: 100%
[26]
  residual activity: 100%
[27]
  residual activity: 100%
[28]
  residual activity: 100%
[29]
  residual activity: 100%
[30]
  inhibition: -6.15%
[31]
  residual activity: 97%
[32]
  residual activity: 100%
[33]
  residual activity: 100%
[34]
  residual activity: 73%
[35]
  residual activity: 100%
[36]
  residual activity: 100%
[37]
  residual activity: 94%
[38]
  residual activity: 100%
[39]
  residual activity: 100%
[40]
  residual activity: 100%
[41]
  residual activity: 100%
[42]
  residual activity: 100%
[43]
  residual activity: 92%
[44]
  residual activity: 91%
[45]
  residual activity: 100%

## CC(C)(O)c1cncc(-c2nc3ccc(F)cc3n2C2CC2)c1 [MSD-CYP11B2]
[1]
  residual activity: 100%
[2]
  residual activity: 71%
[3]
  residual activity: 100%
[4]
  residual activity: 100%
[5]
  residual activity: 100%
[6]
  residual activity: 100%
[7]
  residual activity: 100%
[8]
  residual activity: 100%
[9]
  residual activity: 100%
[10]
  residual activity: 90%
[11]
  residual activity: 100%
[12]
  residual activity: 100%
[13]
  residual activity: 88%
[14]
  residual activity: 100%
[15]
  Ki: 1.54 µM
[16]
  residual activity: 91%
[17]
  residual activity: 100%
[18]
  inhibition: 9.54%
[19]
  residual activity: 100%
[20]
  residual activity: 81%
[21]
  residual activity: 96%
[22]
  residual activity: 100%
[23]
  residual activity: 100%
[24]
  residual activity: 100%
[25]
  residual activity: 100%
[26]
  residual activity: 100%
[27]
  residual activity: 100%
[28]
  residual activity: 100%
[29]
  residual activity: 100%
[30]
  inhibition: -2.81%
[31]
  residual activity: 98%
[32]
  residual activity: 100%
[33]
  residual activity: 100%
[34]
  residual activity: 98%
[35]
  residual activity: 100%
[36]
  residual activity: 100%
[37]
  residual activity: 100%
[38]
  residual activity: 100%
[39]
  residual activity: 100%
[40]
  residual activity: 100%
[41]
  residual activity: 100%
[42]
  residual activity: 100%
[43]
  residual activity: 77%
[44]
  residual activity: 100%
[45]
  residual activity: 100%
